Results as given in patent US6737383B1, “Herbicidal oxadiazolidines” (priority 1999, dated 2004).

Key:
[1] = tested on: cocklebur; assay: Test B pre/postemergence cocklebur; assay type: in vivo, Xanthium strumarium; conditions: for Cocklebur plant response rating (0 to 10 scale): 0 is no effect
In short: (§1)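 Response is a visual 0-to-10 score relative to untreated plants, where 0 means no effect and 10 means complete control, taken twelve to sixteen days after application. Treatments went onto soil at planting and onto foliage of 1- to 4-leaf plants, using a surfactant-containing non-phytotoxic solvent.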

[2] = tested on: morningglory; assay: Test B pre/postemergence morningglory; assay type: in vivo, Ipomoea hederacea; conditions: for Morningglory plant response rating (0 to 10 scale): 0 is no effect
In short: as §1

[3] = tested on: pigweed; assay: Test B pre/postemergence pigweed; assay type: in vivo, Amaranthus retroflexus; conditions: for Redroot pigweed plant response rating (0 to 10 scale): 0 is no effect
In short: as §1

[4] = tested on: soybean; assay: Test B pre/postemergence soybean; assay type: in vivo, Glycine max; conditions: for Soybean plant response rating (0 to 10 scale): 0 is no effect
In short: as §1

[5] = tested on: winter wheat; assay: Test E winter wheat; assay type: in vivo, Triticum aestivum; conditions: Postemergence; for Plant response rating, Wheat (winter): 0 to 100 scale
In short: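 Greenhouse test: compounds in non-phytotoxic solvent with surfactant; for postemergence, sprayed on plants at 1- to 4-leaf stage grown in 60:40 sandy loam/potting mix. Injury rated visually against untreated controls after about 21 to 28 days.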

[6] = tested on: blackgrass; assay: Test E blackgrass; assay type: in vivo, Alopecurus myosuroides; conditions: Preemergence; for Blackgrass plant response rating (0 to 100 scale): Rate 250 g/ha
[7] = tested on: green foxtail; assay: Test E green foxtail; assay type: in vivo, Setaria viridis; conditions: Preemergence; for Green foxtail plant response rating (0 to 100 scale): Rate 250 g/ha
[8] = tested on: Italian ryegrass; assay: Test E Italian ryegrass; assay type: in vivo, Lolium multiflorum; conditions: Preemergence; for I. Ryegrass plant response rating (0 to 100 scale): Rate 250 g/ha
[9] = tested on: winter wheat; assay: Test E winter wheat; assay type: in vivo, Triticum aestivum; conditions: Preemergence; for Wheat (winter) plant response rating (0 to 100 scale): Rate 250 g/ha
[10] = tested on: wild oat; assay: Test E wild oat; assay type: in vivo, Avena fatua; conditions: Preemergence; for Wild oat plant response rating (0 to 100 scale): Rate 250 g/ha
[11] = tested on: winter barley; assay: Test E winter barley; assay type: in vivo, Hordeum vulgare; conditions: Preemergence; for Barley (winter) plant response rating (0 to 100 scale): Rate 250 g/ha
[12] = Postemergence, Rate 125 g/ha, scale of 0 to 10 where 0 is no effect and 10 is complete control
[13] = Preemergence, Rate 62 g/ha, scale of 0 to 10 where 0 is no effect and 10 is complete control
[14] = Preemergence, Rate 125 g/ha, 10 is complete control
[15] = Preemergence, Rate 250 g/ha, scale 0 to 10, 0 is no effect, 10 is complete control
[16] = Preemergence, Rate 500 g/ha, scale 0 to 10 (0 no effect, 10 complete control)
[17] = Rate 62 g/ha, Postemergence, scale of 0 to 10 where 0 is no effect and 10 is complete control
[18] = Rate 250 g/ha, Postemergence, scale 0 to 10, 0 is no effect, 10 is complete control
[19] = Rate 500 g/ha, Postemergence, scale 0 to 10
[20] = Rate 62 g/ha, 0 to 100 scale, 0 no effect, 100 complete control
[21] = Rate 125 g/ha, 0 to 100 scale (0 no effect, 100 complete control)
[22] = Rate 500 g/ha, 0 to 100 scale where 0 is no effect and 100 is complete control
[23] = Postemergence, Rate 1000 g/ha, scale 0 to 10 (0 no effect, 10 complete control)
[24] = Rate 1000 g/ha, Preemergence, scale 0 to 10 (0 no effect, 10 complete control)
[25] = Rate 1000 g/ha, 0 to 100 scale where 0 is no effect and 100 is complete control

Cc1nsc(C)c1-n1c(=O)on(C(=O)N(c2ccc(F)cc2F)C(C)C)c1=O [Compound 158]
30: Plant response rating, Wheat (winter) ([5]; Rate 500 g/ha, 0 no effect, 100 complete control) | Wheat (winter) plant response rating (0 to 100 scale) [9] | Barley (winter) plant response rating (0 to 100 scale) [11] | Plant response rating, Barley (winter) [11, 22]
15: Plant response rating, Wheat (winter) ([5]; Rate 125 g/ha)
5: Soybean plant response rating [4, 19]
1: Morningglory plant response rating [2, 15]
60: Plant response rating, Wild oat [10, 22]
10: Plant response rating, Wheat (winter) ([5]; Rate 62 g/ha) | Plant response rating, Blackgrass [6, 20] | Plant response rating, Green foxtail [7, 21] | Plant response rating, I. Ryegrass [8, 20] | Plant response rating, Wheat (winter) [9, 21] | Plant response rating, Barley (winter) [11, 20]
40: Wheat (winter) plant response rating ([5]; Rate 250 g/ha, 0 to 100 scale where 0 is no effect and 100 is complete control)
50: Blackgrass plant response rating (0 to 100 scale) [6] | Plant response rating, Blackgrass [6, 22] | Plant response rating, Green foxtail [7, 22] | I. Ryegrass plant response rating (0 to 100 scale) [8] | Plant response rating, I. Ryegrass [8, 22] | Plant response rating, Wild oat [10, 20] | Plant response rating, Wild oat [10, 21] | Wild oat plant response rating (0 to 100 scale) [10]
3: Soybean plant response rating [4, 12] | Soybean plant response rating [4, 17]
0: Cocklebur plant response rating [1, 12] | Cocklebur plant response rating [1, 13] | Cocklebur plant response rating (0 to 10 scale) [1, 14] | Cocklebur plant response rating [1, 15] | Cocklebur plant response rating [1, 16] | Cocklebur plant response rating [1, 17] | Plant response rating, Cocklebur [1, 18] | Cocklebur plant response rating [1, 19] | Morningglory plant response rating [2, 13] | Morningglory plant response rating (0 to 10 scale) [2, 14] | Morningglory plant response rating [2, 17] | Redroot pigweed plant response rating [3, 13] | Redroot pigweed plant response rating (0 to 10 scale) [3, 14] | Redroot pigweed plant response rating [3, 15] | Redroot pigweed plant response rating [3, 17] | Soybean plant response rating [4, 13] | Soybean plant response rating (0 to 10 scale) [4, 14] | Soybean plant response rating [4, 15] | Soybean plant response rating [4, 16] | Plant response rating, Green foxtail [7, 20] | Plant response rating, Wheat (winter) [9, 20]
4: Redroot pigweed plant response rating [3, 19] | Plant response rating, Soybean [4, 18]
20: Plant response rating, Blackgrass [6, 21] | Green foxtail plant response rating (0 to 100 scale) [7] | Plant response rating, I. Ryegrass [8, 21] | Plant response rating, Barley (winter) [11, 21]
2: Morningglory plant response rating [2, 12] | Morningglory plant response rating [2, 16] | Plant response rating, Morningglory [2, 18] | Morningglory plant response rating [2, 19] | Redroot pigweed plant response rating [3, 12] | Redroot pigweed plant response rating [3, 16] | Plant response rating, Redroot pigweed [3, 18]

Cc1ccccc1-n1c(=O)on(C(=O)N(c2c(F)cccc2F)C(C)C)c1=O [Compound 176]
20: Wheat (winter) plant response rating (0 to 100 scale) [9]
1: Redroot pigweed plant response rating [3, 23]
0: Cocklebur plant response rating (0 to 10 scale) [1, 14] | Cocklebur plant response rating [1, 15] | Cocklebur plant response rating [1, 16] | Plant response rating, Cocklebur [1, 24] | Morningglory plant response rating (0 to 10 scale) [2, 14] | Morningglory plant response rating [2, 15] | Morningglory plant response rating [2, 16] | Plant response rating, Morningglory [2, 24] | Redroot pigweed plant response rating [3, 12] | Redroot pigweed plant response rating (0 to 10 scale) [3, 14] | Redroot pigweed plant response rating [3, 15] | Redroot pigweed plant response rating [3, 16] | Plant response rating, Redroot pigweed [3, 18] | Redroot pigweed plant response rating [3, 19] | Plant response rating, Redroot pigweed [3, 24] | Soybean plant response rating (0 to 10 scale) [4, 14] | Soybean plant response rating [4, 15] | Soybean plant response rating [4, 16]
40: Plant response rating, Wheat (winter) ([5]; Rate 1000 g/ha, 0 is no effect and 100 is complete control) | Blackgrass plant response rating (0 to 100 scale) [6] | Plant response rating, Barley (winter) [11, 22]
50: Plant response rating, Wheat (winter) ([5]; Rate 500 g/ha, 0 is no effect, 100 is complete control) | Plant response rating, Blackgrass [6, 22] | Green foxtail plant response rating (0 to 100 scale) [7] | I. Ryegrass plant response rating (0 to 100 scale) [8] | Plant response rating, Wheat (winter) [9, 25] | Plant response rating, Wild oat [10, 22] | Plant response rating, Wild oat [10, 25] | Plant response rating, Barley (winter) [11, 25]
7: Morningglory plant response rating [2, 23]
2: Cocklebur plant response rating [1, 12] | Plant response rating, Cocklebur [1, 18] | Morningglory plant response rating [2, 12] | Plant response rating, Morningglory [2, 18] | Soybean plant response rating [4, 12] | Plant response rating, Soybean [4, 18] | Plant response rating, Soybean [4, 24]
100: Plant response rating, Green foxtail [7, 25]
3: Cocklebur plant response rating [1, 19] | Morningglory plant response rating [2, 19]
98: Plant response rating, I. Ryegrass [8, 25]
75: Plant response rating, Blackgrass [6, 25]
4: Soybean plant response rating [4, 23] | Soybean plant response rating [4, 19]
60: Plant response rating, I. Ryegrass [8, 22]
6: Cocklebur plant response rating [1, 23]
30: Plant response rating, Wheat (winter) [9, 22] | Wild oat plant response rating (0 to 100 scale) [10] | Barley (winter) plant response rating (0 to 100 scale) [11]
70: Plant response rating, Green foxtail [7, 22]
